Measured values published in patent US20250230155A1 (Vanderbilt University, priority 2021, published 2025).

Molecular target: T1, human mAChR M4 (Homo sapiens, UniProt P08173)
T1 construct: expressed in transfected cells
T1 sequence (P08173 1-479): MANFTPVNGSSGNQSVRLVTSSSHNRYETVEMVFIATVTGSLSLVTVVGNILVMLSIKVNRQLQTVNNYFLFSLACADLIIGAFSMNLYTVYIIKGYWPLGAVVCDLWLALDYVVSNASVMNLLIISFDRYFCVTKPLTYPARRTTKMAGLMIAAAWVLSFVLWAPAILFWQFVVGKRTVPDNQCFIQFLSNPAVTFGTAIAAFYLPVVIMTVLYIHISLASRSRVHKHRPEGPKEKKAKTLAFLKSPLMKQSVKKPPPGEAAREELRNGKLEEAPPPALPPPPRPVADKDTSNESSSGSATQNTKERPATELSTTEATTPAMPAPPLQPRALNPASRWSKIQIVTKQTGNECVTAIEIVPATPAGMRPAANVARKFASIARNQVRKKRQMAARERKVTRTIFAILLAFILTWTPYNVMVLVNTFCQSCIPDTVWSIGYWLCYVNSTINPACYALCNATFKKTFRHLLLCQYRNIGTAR
Assay: mAChR M4 cell-based functional assay (calcium mobilization, CHO-K1 hM4-Gqi5 cells)
Settings: for Emax at 30 µM: CHO-K1, % ACh maximum at 30 μM; for EC50: positive allosteric modulator activity, increase in the EC20 acetylcholine response, CHO-K1 hM4-Gqi5 cells, read-out: Human M4 EC50
Summary of the method: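 Fluorescent calcium read-out (Fluo-4 AM, FDSS, 1 Hz) in hM4-Gqi5 CHO-K1 cells, 11-point 1:3 compound series. Agonism scored on compound addition, PAM activity as increase of the 144 s EC20 acetylcholine response, antagonism as decrease of the 230 s EC80 response; four-parameter logistic fits give EC50 and Emax.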

Emax at 30 µM (human M4) [%] | EC50 [nM] | Emax (% ACh maximum at 30 μM, human M4) [%] | SMILES
82 | 157 | – | Cc1c(C#N)nnc(N2CCc3ncc(Nc4cc(Cl)cnc4F)cc3C2)c1C [compound 82, 6-[3-[(5-chloro-2-fluoro-3-pyridyl)amino]-7,8-dihydro-5H-1,6-naphthyridin-6-yl]-4,5-dimethyl-pyridazine-3-carbonitrile]
91 | 265 | – | Cc1cc(C#N)cnc1N1CCc2ncc(Nc3ncccc3F)cc2C1 [compound 167, 6-[3-[(3-fluoro-2-pyridyl)amino]-7,8-dihydro-5H-1,6-naphthyridin-6-yl]-5-methyl-pyridine-3-carbonitrile]
90 | 277 | – | Cc1cc(C#N)cnc1N1CCc2ncc(-c3ccnc(C4CC4)c3)cc2C1 [Example 339, 6-(3-(2-cyclopropylpyridin-4-yl)-7,8-dihydro-1,6-naphthyridin-6(5H)-yl)-5-methylnicotinonitrile]
88 | 160 | – | Cc1cc(C#N)cnc1N1CCc2ncc(Oc3cc(F)ccc3F)cc2C1 [Example 351, 6-(3-(2,5-difluorophenoxy)-7,8-dihydro-1,6-naphthyridin-6(5H)-yl)-5-methylnicotinonitrile]
86 | 361 | – | Cc1nc(Cl)c(C)c(N2CCc3ncc(Nc4ccccc4F)cc3C2)n1 [compound 85, 6-(6-chloro-2,5-dimethyl-pyrimidin-4-yl)-N-(2-fluorophenyl)-7,8-dihydro-5H-1,6-naphthyridin-3-amine]
69 | 3130 | – | Cc1cc(C(=O)NCc2cccc(F)c2)cnc1N1CCc2ncccc2C1 [compound 159, 6-(7,8-dihydro-5H-1,6-naphthyridin-6-yl)-N-[(3-fluorophenyl)methyl]-5-methyl-pyridine-3-carboxamide]
108 | 138 | – | Cc1ccc(-c2cnc3c(c2)CN(c2ncc(C#N)cc2C)CC3)cn1 [compound 187, 5-methyl-6-[3-(6-methyl-3-pyridyl)-7,8-dihydro-5H-1,6-naphthyridin-6-yl]pyridine-3-carbonitrile]
98 | 69 | – | Cc1cc(F)ncc1-c1cnc2c(c1)CN(c1ncc(C#N)cc1C)CC2 [Example 436, 6-(3-(6-fluoro-4-methylpyridin-3-yl)-7,8-dihydro-1,6-naphthyridin-6(5H)-yl)-5-methylnicotinonitrile]
98 | 25 | – | Cc1cc(C#N)nnc1N1CCc2ncc(Nc3ccncc3F)cc2C1 [Example 598, 6-(3-((3-fluoropyridin-4-yl)amino)-7,8-dihydro-1,6-naphthyridin-6(5H)-yl)-5-methylpyridazine-3-carbonitrile]
76 | 465 | – | Cc1cc(C#N)cnc1N1CCc2ncc(-c3cnn(CC(C)C)c3)cc2C1 [compound 112, 6-[3-(1-isobutylpyrazol-4-yl)-7,8-dihydro-5H-1,6-naphthyridin-6-yl]-5-methyl-pyridine-3-carbonitrile]
90 | 330 | – | CCCn1cc(-c2cnc3c(c2)CN(c2ncc(C#N)cc2C)CC3)cn1 [compound 108, 5-methyl-6-[3-(1-propylpyrazol-4-yl)-7,8-dihydro-5H-1,6-naphthyridin-6-yl]pyridine-3-carbonitrile]
80 | 188 | – | Cc1cc(C#N)cnc1N1CCc2ncc(-c3cnn(CC(F)(F)F)c3)cc2C1 [compound 100, 5-methyl-6-[3-[1-(2,2,2-trifluoroethyl)pyrazol-4-yl]-7,8-dihydro-5H-1,6-naphthyridin-6-yl]pyridine-3-carbonitrile]

The next lines start with the molecule.

SMILES | Emax at 30 µM (human M4) [%] | EC50 [nM] | Emax (% ACh maximum at 30 μM, human M4) [%]
Cc1cc(C#N)nnc1N1CCc2ncc(-n3cccn3)cc2C1 [Example 400, 6-(3-(1H-pyrazol-1-yl)-7,8-dihydro-1,6-naphthyridin-6(5H)-yl)-5-methylpyridazine-3-carbonitrile] | 56 | 1050 | –
Cc1c(C#N)nnc(N2CCc3ncc(-c4cccnc4C(F)(F)F)cc3C2)c1C [compound 50, 4,5-dimethyl-6-[3-[2-(trifluoromethyl)-3-pyridyl]-7,8-dihydro-5H-1,6-naphthyridin-6-yl]pyridazine-3-carbonitrile] | 68 | 1790 | –
Cc1c(C#N)nnc(N2CCc3ncc(Nc4ccnn4C)cc3C2)c1C [compound 169, 4,5-dimethyl-6-[3-[(2-methylpyrazol-3-yl)amino]-7,8-dihydro-5H-1,6-naphthyridin-6-yl]pyridazine-3-carbonitrile] | 100 | 111 | –
Cc1ccc(Oc2cnc3c(c2)CN(c2nc(C)nc(C)c2C)CC3)c(F)c1 [compound 269, 3-(2-fluoro-4-methylphenoxy)-6-(2,5,6-trimethylpyrimidin-4-yl)-5,6,7,8-tetrahydro-1,6-naphthyridine] | 89 | 1080 | –
Cc1cc(C(=O)NC2CC(F)(F)C2)cnc1N1CCc2ncc(-c3cn(C)nc3C)cc2C1 [Example 476, N-(3,3-difluorocyclobutyl)-6-(3-(1,3-dimethyl-1H-pyrazol-4-yl)-7,8-dihydro-1,6-naphthyridin-6(5H)-yl)-5-methylnicotinamide] | 67 | 752 | –
Cc1cc(C#N)cnc1N1Cc2cc(N3CCOCC3)cnc2C(C)C1 (single isomer, unassigned) [Example 408, 5-methyl-6-(8-methyl-3-morpholino-7,8-dihydro-1,6-naphthyridin-6(5H)-yl)nicotinonitrile] | – | 685 | 65
Cc1c(C#N)nnc(N2CCc3ncc(-c4ccc(N5CCN(C6CC6)CC5)nc4)cc3C2)c1C [Example 335, 6-(3-(6-(4-cyclopropylpiperazin-1-yl)pyridin-3-yl)-7,8-dihydro-1,6-naphthyridin-6(5H)-yl)-4,5-dimethylpyridazine-3-carbonitrile] | 41 | 386 | –
Cc1nc(C)c(C)c(N2CCc3ncc(Oc4cc(F)ccc4F)cc3C2)n1 [compound 263, 3-(2,5-difluorophenoxy)-6-(2,5,6-trimethylpyrimidin-4-yl)-5,6,7,8-tetrahydro-1,6-naphthyridine] | 90 | 145 | –
Cc1cc(C(=O)N2CCC2C)nnc1N1CCc2ncc(N3CCCn4nccc43)cc2C1 (stereo not drawn) [Example 550, (6-(3-(6,7-dihydropyrazolo[1,5-a]pyrimidin-4(5H)-yl)-7,8-dihydro-1,6-naphthyridin-6(5H)-yl)-5-methylpyridazin-3-yl)(2-methylazetidin-1-yl)methanone] | 111 | 86 | –
Cc1c(Cl)nc(C(F)(F)F)nc1N1CCc2ncc(C3CC3)cc2C1 [compound 242, 6-(6-chloro-5-methyl-2-(trifluoromethyl)pyrimidin-4-yl)-3-cyclopropyl-5,6,7,8-tetrahydro-1,6-naphthyridine] | 83 | 1870 | –
Cc1nn(C)cc1-c1cnc2c(c1)CN(c1nc(N3CCOCC3)nc(C)c1C)CC2 [compound 270, 4-(4-(3-(1,3-dimethyl-1H-pyrazol-4-yl)-7,8-dihydro-1,6-naphthyridin-6(5H)-yl)-5,6-dimethylpyrimidin-2-yl)morpholine] | 70 | 896 | –
Cc1cc(C(=O)N2CC(C)(O)C2)nnc1N1CCc2ncc(-n3cccn3)cc2C1 [Example 534, (6-(3-(1H-pyrazol-1-yl)-7,8-dihydro-1,6-naphthyridin-6(5H)-yl)-5-methylpyridazin-3-yl)(3-hydroxy-3-methylazetidin-1-yl)methanone] | 88 | 322 | –
